# Results from patent US11814376B2, “Hepatitis b core protein modulators” (Assembly Biosciences, Inc., priority 2015, dated 2023).
# Key:
# [1] = test system: HBV viral load in AD38 cells; experiment: Viral load production in AD38 cells, quantitative PCR of the core sequence in supernatant; assay type: cell-based; details: 10 μM compound, 6 days at 37° C., supernatant qPCR, relative to DMSO control; for activity at 10 µM: Hepatitis B virus, 144 h, read-out: AD38 Viral Load (%) (VL with cmpd/VL in DMSO control) at 10 μM
# AD38 cells = experiment: Viability of AD38 cells (Promega CellTiter-Glo); assay type: cell-based; details: 10 μM compound, 6 days, CellTiter-Glo luminescence normalized to DMSO control (100%)
# Outline: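 After 6 days of compound exposure at 37° C (compound added as 10× solution in 10% DMSO; 50,000 cells/well, collagen-coated), medium was replaced with tetracycline-free DMEM/F12, 2% FBS, 1% DMSO. CellTiter-Glo luminescence was then recorded and normalized to DMSO-treated wells as 100% viability.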
SMILES,activity at 10 µM [1] [%],AD38 Viability Normalized Result (cmpd/DMSO %) at 10 μM (AD38 cells) [%],AD38 Viral Load (%) (VL with cmpd/VL in DMSO control) at 10 μM [1]
CCc1cc2c(cc1C(=O)NCc1cnc(C(F)(F)F)s1)NC(=O)c1ccccc1S2(=O)=O [compound 11041],47.4,94,
CCc1cc2c(cc1C(=O)NCc1cnc(-c3ccc(C#N)cc3F)s1)NC(=O)c1ccccc1S2(=O)=O [compound 11042],0.8,109,
CC(C)CN1c2ccc(C(=O)NCc3cnc(C(F)(F)F)s3)cc2NC(=O)c2ccccc21 [compound 11043],12,100,
CC(C)CN1c2ccc(C(=O)NCc3cnc(-c4ccc(C#N)cc4F)s3)cc2NC(=O)c2ccccc21 [compound 11044],5.1,124,
O=C(NCc1cnc(-n2ccc(F)n2)s1)c1ccc2c(c1)NC(=O)c1ccccc1S2(=O)=O [compound 11045],0.6,94,
Cn1ccc(-c2ncc(CNC(=O)c3ccc4c(c3)NC(=O)c3ccccc3S4(=O)=O)s2)n1 [compound 11046],0.9,100,
O=C(NCc1cnc(-n2ccnn2)s1)c1ccc2c(c1)NC(=O)c1ccccc1S2(=O)=O [compound 11047],1.4,96,
O=C(NCc1cnc(-n2nccn2)s1)c1ccc2c(c1)NC(=O)c1ccccc1S2(=O)=O [compound 11048],1.2,103,
O=C(NCc1cnc(-c2cscn2)s1)c1ccc2c(c1)NC(=O)c1ccccc1S2(=O)=O [compound 11049],0.8,89,
O=C(NCc1cnc(-c2cc(F)ccn2)s1)c1ccc2c(c1)NC(=O)c1ccccc1S2(=O)=O [compound 11050],0.7,96,
N#Cc1ccnc(-c2ncc(CNC(=O)c3ccc4c(c3)NC(=O)c3ccccc3S4(=O)=O)s2)c1 [compound 11051],1.2,103,
CCN(CC)CCCCc1ccc(-c2ncc(CNC(=O)c3ccc4c(c3)NC(=O)c3ccccc3S4(=O)=O)s2)cc1 [compound 11053],3.6,104,
CC(C)(C)NCCCCc1ccc(-c2ncc(CNC(=O)c3ccc4c(c3)NC(=O)c3ccccc3S4(=O)=O)s2)cc1 [compound 11054],14.1,102,
O=C(NCc1cnc(-c2ccc(CCCCN3CCCCC3)cc2)s1)c1ccc2c(c1)NC(=O)c1ccccc1S2(=O)=O [compound 11055],4,94,
O=C(NCc1cnc(-c2ccc(CCCCN3CCOCC3)cc2)s1)c1ccc2c(c1)NC(=O)c1ccccc1S2(=O)=O [compound 11056],0.8,96,
CC(=O)NCCCCc1ccc(-c2ncc(CNC(=O)c3ccc4c(c3)NC(=O)c3ccccc3S4(=O)=O)s2)cc1 [compound 11057],1,101,
"O=C(NCc1cnc(-c2ccc(C#CCCN3CCOCC3)cc2)s1)c1ccc2c(c1)NC(=O)c1ccccc1S2(=O)=O [compound 11061, N-((2-(4-(4-morpholinobut-1-yn-1-yl)phenyl)thiazol-5-yl)methyl)-11-oxo-10, 11-dihydrodibenzo [b, f] [1, 4] thiazepine-8-carboxamide 5,5-dioxide]",0.9,95,
"CCN(CC)CCCSc1ccc(-c2ncc(CNC(=O)c3ccc4c(c3)NC(=O)c3ccccc3S4(=O)=O)s2)cc1 [compound 11063, N-((2-(4-((3-(diethylamino)propyl)thio)phenyl)thiazol-5-yl)methyl)-11-oxo-10, 11-dihydrodibenzo [b, f] [1, 4] thiazepine-8-carboxamide 5,5-dioxide]",1.2,102,
"CC(C)(C)NCCCSc1ccc(-c2ncc(CNC(=O)c3ccc4c(c3)NC(=O)c3ccccc3S4(=O)=O)s2)cc1.O=C(O)C(F)(F)F [compound 11064, N-((2-(4-((3-(tert-butylamino)propyl)thio)phenyl)thiazol-5-yl)methyl)-11-oxo-10, 11-dihydrodibenzo [b, f] [1, 4] thiazepine-8-carboxamide 5,5-dioxide TFA salt]",4.1,85,
"O=C(NCc1cnc(-c2ccc(SCCCN3CCCCC3)cc2)s1)c1ccc2c(c1)NC(=O)c1ccccc1S2(=O)=O [compound 11065, 11-oxo-N-((2-(4-((3-(piperidin-1-yl)propyl)thio)phenyl)thiazol-5-yl)methyl)-10, 11-dihydrodibenzo [b, f] [1, 4] thiazepine-8-carboxamide 5,5-dioxide]",1.2,66,

SMILES,activity at 10 µM [1] [%],AD38 Viability Normalized Result (cmpd/DMSO %) at 10 μM (AD38 cells) [%],AD38 Viral Load (%) (VL with cmpd/VL in DMSO control) at 10 μM [1]
"O=C(NCc1cnc(-c2ccc(SCCCN3CCOCC3)cc2)s1)c1ccc2c(c1)NC(=O)c1ccccc1S2(=O)=O [compound 11066, N-((2-(4-((3-morpholinopropyl)thio)phenyl)thiazol-5-yl)methyl)-11-oxo-10, 11-dihydrodibenzo [b, f] [1, 4] thiazepine-8-carboxamide 5,5-dioxide]",0.4,104,
"CC(=O)NCCCSc1ccc(-c2ncc(CNC(=O)c3ccc4c(c3)NC(=O)c3ccccc3S4(=O)=O)s2)cc1 [compound 11067, N-((2-(4-((3-acetamidopropyl)thio)phenyl)thiazol-5-yl)methyl)-11-oxo-10, 11-dihydrodibenzo [b, f] [1, 4] thiazepine-8-carboxamide 5,5-dioxide]",2.5,99,
CCN(CC)CCCOc1ccc(-c2ncc(CNC(=O)c3ccc4c(c3)NC(=O)c3ccccc3S4(=O)=O)s2)cc1 [compound 11073],2.2,94,
Cc1c(C(=O)NCc2cnc(-n3cccn3)s2)ccc2c1NC(=O)c1ccccc1S2(=O)=O [compound 11074],,103,0.6
Cc1c(C(=O)NCc2cnc(-c3ccccn3)s2)ccc2c1NC(=O)c1ccccc1S2(=O)=O [compound 11077],0.9,90,
O=C(NCc1cnc(C(F)(F)F)s1)c1ccc2c(c1)NC(=O)c1ccccc1N2CCO [compound 11078],45.7,96,
N#Cc1ccc(-c2ncc(CNC(=O)c3ccc4c(c3)NC(=O)c3ccccc3N4CCO)s2)c(F)c1 [compound 11079],3.3,102,
CC(CCN(C)C)Oc1ccc(-c2ncc(CNC(=O)c3ccc4c(c3)NC(=O)c3ccccc3S4(=O)=O)s2)cc1 (centres unmarked) [compound 11080],1.4,84,
O=C1Nc2c(ccc(C(=O)NCc3cnc(C(F)(F)F)s3)c2Cl)S(=O)(=O)c2ccccc21 [compound 11082],1.2,95,
N#Cc1ccc(-c2ncc(CNC(=O)c3ccc4c(c3Cl)NC(=O)c3ccccc3S4(=O)=O)s2)c(F)c1 [compound 11083],0.8,62,
CN(C)CC(O)COc1ccc(-c2ncc(CNC(=O)c3ccc4c(c3)NC(=O)c3ccccc3S4(=O)=O)s2)cc1 (centres unmarked) [compound 11085],3.4,88,
CCN(CC)CC(O)COc1ccc(-c2ncc(CNC(=O)c3ccc4c(c3)NC(=O)c3ccccc3S4(=O)=O)s2)cc1 (centres unmarked) [compound 11086],4.7,88,
CC(C)N(C)CC(O)COc1ccc(-c2ncc(CNC(=O)c3ccc4c(c3)NC(=O)c3ccccc3S4(=O)=O)s2)cc1 (centres unmarked) [compound 11087],7.1,103,
CC(C)N(C)CCCOc1ccc(-c2ncc(CNC(=O)c3ccc4c(c3)NC(=O)c3ccccc3S4(=O)=O)s2)cc1 [compound 11091],1.3,89,
CN(CCCOc1ccc(-c2ncc(CNC(=O)c3ccc4c(c3)NC(=O)c3ccccc3S4(=O)=O)s2)cc1)C1CC1 [compound 11092],0.5,101,
CC(C)N(C)CCCCc1ccc(-c2ncc(CNC(=O)c3ccc4c(c3)NC(=O)c3ccccc3S4(=O)=O)s2)cc1 [compound 11093],4.6,102,
CN(CCCCc1ccc(-c2ncc(CNC(=O)c3ccc4c(c3)NC(=O)c3ccccc3S4(=O)=O)s2)cc1)C1CC1 [compound 11094],0.6,94,
CN(C)CCCCc1cnn(-c2ncc(CNC(=O)c3ccc4c(c3)NC(=O)c3ccccc3S4(=O)=O)s2)c1 [compound 11099],3.9,90,
CCN(CC)CCCCc1cnn(-c2ncc(CNC(=O)c3ccc4c(c3)NC(=O)c3ccccc3S4(=O)=O)s2)c1 [compound 11100],6.8,102,
CCN(CC)CCC(C)Oc1ccc(-c2ncc(CNC(=O)c3ccc4c(c3)NC(=O)c3ccccc3S4(=O)=O)s2)cc1 (centres unmarked) [compound 11101],1.9,85,
